Measured values reported in US20150166523A1, “BRANCHED CHAIN ALKYL HETEROAROMATIC RING DERIVATIVE” (TAISHO PHARMACEUTICAL CO., LTD., priority 2012, published 2015).

Tests used:
[1] = biological target: T1, orexin-2 receptor (hOX2R) (Homo sapiens, UniProt O43614); test: Measurement of orexin antagonistic activity (intracellular Ca2+ fluorescence, FDSS) on hOX2R; format: cell-based; details: CHO cells forcibly expressing hOX2R; Fluo-4AM; ligand peptide (substituted human orexin-A) 3 nM; compound preincubated 30 minutes; read-out: IC50 Value OX2
T1 construct: expressed in transfected cells; host or cells: Chinese hamster ovary (CHO) cells
T1 sequence (O43614 1-444): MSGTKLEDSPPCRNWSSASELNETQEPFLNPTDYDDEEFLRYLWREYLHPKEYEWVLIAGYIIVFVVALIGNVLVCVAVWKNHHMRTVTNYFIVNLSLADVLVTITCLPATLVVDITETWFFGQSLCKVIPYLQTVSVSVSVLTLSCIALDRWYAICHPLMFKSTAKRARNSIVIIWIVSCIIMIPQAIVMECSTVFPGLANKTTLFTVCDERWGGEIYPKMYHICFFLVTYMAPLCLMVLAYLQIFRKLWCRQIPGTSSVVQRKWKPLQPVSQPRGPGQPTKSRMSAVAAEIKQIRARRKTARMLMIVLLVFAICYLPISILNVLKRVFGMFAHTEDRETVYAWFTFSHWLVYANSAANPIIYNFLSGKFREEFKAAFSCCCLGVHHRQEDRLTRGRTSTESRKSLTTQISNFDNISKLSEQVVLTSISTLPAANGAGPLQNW
Description: (§1) The antagonistic activities of the test compounds on human orexin-1 receptor (hOX1R) and orexin-2 receptor (hOX2R) were measured by modifying from the method described in literature (Toshikatsu Okumura et al., Biochemical and Biophysical Research Communications, 280, 976-981, 2001). Chinese hamster ovary (CHO) cells forcibly expressing the hOX1R and hOX2R were seeded into a 96 well Black clear bottom plate (Nunc) at 20,000 cells per well, which were cultured in Ham's F-12 medium containing 0.1 mM MEM non-essential amino acids, 0.5 mg/mL G418, 10% fetal bovine serum (all by Invitrogen) for 16 hours under the conditions of 37° C., 5% CO2. After removing the medium, 100 μL of 0.5 μM Fluo-4AM ester (Dojin) in an assay buffer (25 mM HEPES (Dojin), Hank's balanced salt solution (Invitrogen), 0.1% bovine serum albumin, 2.5 mM probenecid, 200 μg/mL Amaranth (all by Sigma-Aldrich), pH 7.4) was added and the cells were incubated for 60 minutes at 37° C., 5% CO2. After removing the assay buffer containing fluo-4AM ester, the test compound was dissolved in dimethyl sulfoxide to be 10 mM and diluted with the assay buffer, 150 μL, of which was added and incubated for 30 minutes.
(§2) The reaction was measured for the fluorescence intensity of each well every second for 3 minutes using Functional Drug Screening System (FDSS; Hamamatsu Photonics K.K.), and the antagonistic activity was determined using the maximum fluorescence intensity as the indicator of intracellular Ca2+ concentration.

[2] = biological target: T2, human orexin-1 receptor (hOX1R) (Homo sapiens, UniProt O43613); test: Measurement of orexin antagonistic activity (intracellular Ca2+ fluorescence, FDSS) on hOX1R; format: cell-based; details: CHO cells forcibly expressing hOX1R; Fluo-4AM; ligand peptide (substituted human orexin-A) 300 pM; compound preincubated 30 minutes; read-out: IC50 Value OX1
T2 construct: expressed in transfected cells; host or cells: Chinese hamster ovary (CHO) cells
T2 sequence (O43613 1-425): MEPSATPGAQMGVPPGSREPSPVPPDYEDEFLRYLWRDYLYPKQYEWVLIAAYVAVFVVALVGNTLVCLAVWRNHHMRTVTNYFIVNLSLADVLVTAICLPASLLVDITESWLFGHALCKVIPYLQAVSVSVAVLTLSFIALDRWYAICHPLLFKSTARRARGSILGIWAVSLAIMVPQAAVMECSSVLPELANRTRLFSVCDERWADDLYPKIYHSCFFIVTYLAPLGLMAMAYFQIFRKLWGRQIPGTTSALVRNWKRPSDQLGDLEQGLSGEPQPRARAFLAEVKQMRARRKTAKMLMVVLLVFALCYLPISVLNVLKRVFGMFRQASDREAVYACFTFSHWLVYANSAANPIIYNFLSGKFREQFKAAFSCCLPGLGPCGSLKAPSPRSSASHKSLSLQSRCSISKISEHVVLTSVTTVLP
Description: as §1, §2

SMILES: CCN(C(=O)c1cc(C)ccc1-n1nccn1)[C@@H](C)Cn1ccc(-c2ccc(F)cn2)n1 [Example 1, N-Ethyl-N-{(2S)-1-[3-(5-fluoropyridin-2-yl)-1H-pyrazol-1-yl]propan-2-yl}-5-methyl-2-(2H-1,2,3-triazol-2-yl)benzamide]
- IC50 [1]: 1.1 nM
- IC50 [2]: 1 nM

SMILES: CCN(C(=O)c1cc(C)ccc1-n1nccn1)[C@H](C)Cn1ccc(-c2ccc(F)cn2)n1 [Example 2, N-Ethyl-N-{(2R)-1-[3-(5-fluoropyridin-2-yl)-1H-pyrazol-1-yl]propan-2-yl]-5-methyl-2-(2H-1,2,3-triazol-2-yl) benzamide]
- IC50 [1]: 186 nM
- IC50 [2]: 17.4 nM

SMILES: CCN(C(=O)c1nc(C)ccc1-n1nccn1)[C@@H](C)Cn1ccc(-c2ccc(F)cc2)n1 [Example 3, N-Ethyl-N-[(2S)-1-[3-(4-fluorophenyl)-1H-pyrazol-1-yl]propan-2-yl]-6-methyl-3-(2H-1,2,3-triazol-2-yl) pyridine-2-carboxamide]
- IC50 [1]: 4.5 nM
- IC50 [2]: 1 nM

SMILES: C[C@@H](Cn1ccc(-c2ccc(F)cn2)n1)N(C)C(=O)c1ccccc1-c1ncccn1 [Example 4, N-[(2S)-1-[3-(5-Fluoropyridin-2-yl)-1H-pyrazol-1-yl]propan-2-yl]-N-methyl-2-(pyrimidin-2-yl)benzamide]
- IC50 [1]: 67 nM
- IC50 [2]: 1.7 nM

SMILES: C[C@@H](Cn1ccc(-c2ccc(F)cn2)n1)N(C)C(=O)c1cc(F)ccc1-c1ncccn1 [Example 5, 5-Fluoro-N-{(2S)-1-[3-(5-fluoropyridin-2-yl)-1H-pyrazol-1-yl]propan-2-yl}-N-methyl-2-(pyrimidin-2-yl)benzamide]
- IC50 [1]: 75.5 nM

SMILES: Cc1ccc(-c2ncccn2)c(C(=O)N(C)[C@@H](C)Cn2ccc(-c3ccc(F)cn3)n2)c1 [Example 6, N-{(2S)-1-[3-(5-Fluoropyridin-2-yl)-1H-pyrazol-1-yl]propan-2-yl}-N,5-dimethyl-2-(pyrimidin-2-yl) benzamide]
- IC50 [1]: 8.4 nM
- IC50 [2]: 1.2 nM

SMILES: CCN(C(=O)c1ccccc1-c1ncccn1)[C@@H](C)Cn1ccc(-c2ccc(F)cn2)n1 [Example 7, N-Ethyl-N-{(2S)-1-[3-(5-fluoropyridin-2-yl)-1H-pyrazol-1-yl]propan-2-yl}-2-(pyrirnidin-2-yl) benzamide]
- IC50 [1]: 43.1 nM
- IC50 [2]: 6.8 nM

SMILES: CCN(C(=O)c1cc(F)ccc1-c1ncccn1)[C@@H](C)Cn1ccc(-c2ccc(F)cn2)n1 [Example 8, N-Ethyl-5-fluoro-N-[(2S)-1-[3-(5-fluoropyridin-2-yl)-1H-pyrazol-1-yl]propan-2-yl]-2-(pyrimidin-2-yl) benzamide]
- IC50 [1]: 35.3 nM
- IC50 [2]: 1.5 nM

SMILES: CCN(C(=O)c1cc(F)ccc1-c1ncccn1)[C@H](C)Cn1ccc(-c2ccc(F)cn2)n1 [Example 9, N-Ethyl-5-fluoro-N-[(2R)-1-[3-(5-fluoropyridin-2-yl)-1H-pyrazol-1-yl]propan-2-yl)-2-(pyrimidin-2-yl) benzamide]
- IC50 [1]: 1420 nM
- IC50 [2]: 988 nM

SMILES: CCN(C(=O)c1ccccc1-c1ncccn1)[C@@H](C)Cn1ccc(-c2ccc(F)cc2)n1 [Example 10, N-Ethyl-N-[(2S)-1-[3-(4-fluorophenyl)-1H-pyrazol-1-yl]propan-2-yl)-2-(pyrimidin--2-yl) benzamide]
- IC50 [1]: 12.8 nM
- IC50 [2]: 0.2 nM

SMILES: CCN(C(=O)c1cc(F)ccc1-c1ncccn1)[C@@H](C)Cn1ccc(-c2ccc(F)cc2)n1 [Example 11, N-Ethyl-5-fluoro-N-[(2S)-1-[3-(4-fluorophenyl)-1H-pyrazol-1-yl]propan-2-yl}-2-(pyrimidin-2-yl) benzamide]
- IC50 [1]: 14.4 nM
- IC50 [2]: 0.2 nM

SMILES: CCN(C(=O)c1cc(F)ccc1-c1ncccn1)[C@H](C)Cn1ccc(-c2ccc(F)cc2)n1 [Example 12, N-Ethyl-5-fluoro-N-[(2R)-1-[3-(4-fluorophenyl)-1H-pyrazol-1-yl]propan-2-yl]-2-(pyrimidin-2-yl)benzamide]
- IC50 [1]: 580 nM
- IC50 [2]: 364 nM

SMILES: CCN(C(=O)c1c(F)cccc1-c1ncccn1)[C@@H](C)Cn1ccc(-c2ccc(F)cc2)n1 [Example 13, N-Ethyl-2-fluoro-N-[(2S)-1-[3-(4-fluorophenyl)-1H-pyrazol-1-yl]propan-2-yl)-6-(pyrimidin-2-yl)benzamide]
- IC50 [1]: 53.9 nM
- IC50 [2]: 1.9 nM

SMILES: CCN(C(=O)c1ccc(F)cc1-c1ncccn1)[C@@H](C)Cn1ccc(-c2ccc(F)cc2)n1 [Example 14, N-Ethyl-4-fluoro-N-[(2S)-1-[3-(4-fluorophenyl)-1H-pyrazol-1-yl]propan-2-yl)-2-(pyrimidin-2-yl)benzamide]
- IC50 [1]: 7 nM
- IC50 [2]: 1.3 nM

SMILES: CCN(C(=O)c1nc(C)ccc1-c1ncccn1)[C@@H](C)Cn1ccc(-c2ccc(F)cc2)n1 [Example 15, N-Ethyl-N-[(2S)-1-[3-(4-fluorophenyl)-1H-pyrazol-1-yl]propan-2-yl}-6-methyl-3-(pyrimidin-2-yl)pyridine-2-carboxamide]
- IC50 [1]: 18 nM
- IC50 [2]: 1.2 nM

SMILES: CCN(C(=O)c1nc(C)ccc1-n1nccn1)[C@@H](C)Cn1ccc(-c2ccc(F)c(F)c2)n1 [Example 16, N-[(2S)-1-[3-(3,4-Difiuorophenyl)-1H-pyrazol-1-yl]propan-2-yl]-N-ethyl-6-methyl-3-(2H-1,2,3-triazol-2-yl)pyridine-2-carboxamide]
- IC50 [1]: 9.7 nM
- IC50 [2]: 1.8 nM

SMILES: CCN(C(=O)c1cc(F)ccc1-c1ncccn1)[C@@H](C)Cn1ccc(-c2ccc(F)c(F)c2)n1 [Example 17, N-{(2S)-1-[3-(3,4-Difluorophenyl)-1H-pyrazol-1-yl]propan-2-yl}-N-ethyl-5-fluoro-2-(pyrimidin-2-yl)benzamide]
- IC50 [1]: 10.1 nM
- IC50 [2]: 2.1 nM

SMILES: CCN(C(=O)c1ccccc1-n1nccn1)[C@@H](C)Cn1ccc(-c2ccc(F)cn2)n1 [Example 18, N-Ethyl-N-{(2S)-1-[3-(5-fluoropyridin-2-yl)-1H-pyrazol-1-yl]propan-2-yl}-2-(2H-1,2,3-triazol-2-yl)benzamide]
- IC50 [1]: 7.7 nM
- IC50 [2]: 0.7 nM

SMILES: Cc1ccc(-n2nccn2)c(C(=O)N(C)[C@@H](C)Cn2ccc(-c3ccc(F)cn3)n2)c1 [Example 19, N-{(2S)-1-[3-(5-Fluoropyridin-2-yl)-1H-pyrazol-1-yl]propan-2-yl}-N,5-dimethyl-2-(2H-1,2,3-triazol-2-yl) benzamide]
- IC50 [1]: 5.8 nM
- IC50 [2]: 1.1 nM

SMILES: C[C@@H](Cn1ccc(-c2ccc(F)cn2)n1)N(C)C(=O)c1ccccc1-n1nccn1 [Example 20, N-{(2S)-1-[3-(5-Fluoropyridin-2-yl)-1H-pyrazol-1-yl]propan-2-yl}-N-methyl-2-(2H-1,2,3-triazol-2-yl)benzamide]
- IC50 [1]: 55.9 nM
- IC50 [2]: 3.4 nM

SMILES: CCN(C(=O)c1ccccc1-n1nccn1)[C@@H](C)Cn1cc(-c2ccc(F)cn2)cn1 [Example 21, N-Ethyl-N-{(2S)-1-[4-(5-fluoropyridin-2-yl)-1H-pyrazol-1-yl]propan-2-yl}-2-(2H-1,2,3-triazol-2-yl)benzamide]
- IC50 [1]: 188 nM
- IC50 [2]: 8.1 nM

SMILES: Cc1ccc(-n2nccn2)c(C(=O)N(C)[C@@H](C)Cn2cc(-c3ccc(F)cn3)cn2)c1 [Example 22, N-{(2S)-1-[4-(5-Fluoropyridin-2-yl)-1H-pyrazol-1-yl]propan-2-yl}-N,5-dimethyl-2-(2H-1,2,3-triazol-2-yl) benzamide]
- IC50 [1]: 52.9 nM
- IC50 [2]: 3.8 nM

SMILES: Cc1ccc(-c2ncccn2)c(C(=O)N(C)[C@@H](C)Cc2noc(-c3ccc(F)cn3)n2)c1 [Example 46, N-{(2S)-1-[5-(5-Fluoropyridin-2-yl)-1,2,4-oxadiazol-3-yl]propan-2-yl}-N,5-dimethyl-2-(pyrimidin-2-yl)benzamide]
- IC50 [2]: 21.6 nM
